Tested on: patients with rheumatoid arthritis
Assay: Phase II clinical study: laboratory tests and immune system perimeters
Format: in vivo, human
Set-up: ESR / CRP / RF / Ig A / Ig G / Laboratory blood tests: Hg / Laboratory blood tests: WBC / Laboratory blood tests: BP / Laboratory blood tests: Cr / Laboratory blood tests: BUN: unit not given here
Conditions: for Laboratory blood tests: Hg / Laboratory blood tests: WBC / Laboratory blood tests: BP / Laboratory blood tests: BUN / Laboratory blood tests: Cr / Laboratory blood tests: GPT: overall group
Source text: It was a multiple-centered, randomized, parallel, positive controlled Phrase II clinical study.
10) Routine blood and urine exam: Hemoglobin, platelet count, biochemical serum test and routine urine test
11) Blood Sedimentation (Norm. M: 15 mm/hr F: 20 mm/hr)
12) Serum Rheumatoid Factor (Method: Latex Agglutination Test, LAT): The maximum titer value were required for positive reaction patients. All centers use the same standard agents in one product batch.
13) C-reactive protein (quantitative method): All centers use the same standard agents in one product batch.

[1] = 4 weeks (row order of Table 65)
[2] = 8 weeks (row order of Table 65)
[3] = 12 weeks (row order of Table 65)
[4] = 24 weeks (row order of Table 65)
[5] = 4 weeks (row order of Table 67)
[6] = 8 weeks (row order of Table 67)
[7] = 12 weeks (row order of Table 67)
[8] = 24 weeks (row order of Table 67)
[9] = period of treatment 0 (row order of Table 67)
[10] = period of treatment 0 (row order of Table 65)

CN(Cc1cnc2nc(N)nc(N)c2n1)c1ccc(C(=O)N[C@@H](CCC(=O)O)C(=O)O)cc1 [MTX, Methotrexate]
CRP (4 weeks): 27.97 ± 21.12 | ESR (4 weeks): 42.11 ± 38.68 | Ig A [1]: 3.64 ± 3.54 | Ig G [1]: 17.40 ± 6.59 | RF [1]: 1.87 ± 0.62 | CRP (8 weeks): 25.72 ± 19.42 | ESR (8 weeks): 44.92 ± 78.36 | Ig A [2]: 3.98 ± 3.56 | Ig G [2]: 17.62 ± 6.37 | Ig M [2]: 2.76 ± 2.24 | RF [2]: 1.59 ± 0.61 | CRP (12 weeks): 22.31 ± 18.91 | ESR (12 weeks): 29.96 ± 20.48 | Ig A [3]: 3.39 ± 3.15 | Ig G [3]: 16.47 ± 5.92 | RF [3]: 1.72 ± 0.56 | CRP (24 weeks): 27.12 ± 22.39 | ESR (24 weeks): 28.66 ± 20.96 | Ig A [4]: 2.35 ± 1.55 | Ig G [4]: 15.26 ± 6.37 | Ig M [4]: 1.57 ± 0.79 | RF [4]: 1.74 ± 0.63 | Laboratory blood tests: Hg (4 weeks): 10.96 ± 3.65 | Laboratory blood tests: WBC (4 weeks): 7.47 ± 2.09 | Laboratory blood tests: BP [5]: 94.28 ± 31.42 | Laboratory blood tests: BUN [5]: 3.32 ± 1.11 | Laboratory blood tests: Cr [5]: 82.82 ± 27.64 | Laboratory blood tests: GPT [5]: Norm. | Laboratory blood tests: Hg (8 weeks): 9.26 ± 3.09 | Laboratory blood tests: WBC (8 weeks): 8.47 ± 2.82 | Laboratory blood tests: BP [6]: 108.73 ± 36.21 | Laboratory blood tests: BUN [6]: 1.97 ± 0.65 | Laboratory blood tests: Cr [6]: 98.89 ± 32.93 | Laboratory blood tests: GPT [6]: Norm. | Laboratory blood tests: Hg (12 weeks): 9.24 ± 2.98 | Laboratory blood tests: WBC (12 weeks): 8.42 ± 2.57 | Laboratory blood tests: BP [7]: 110.66 ± 37.48 | Laboratory blood tests: BUN [7]: 1.82 ± 0.47 | Laboratory blood tests: Cr [7]: 102.03 ± 36.86 | Laboratory blood tests: GPT [7]: Norm. | Laboratory blood tests: Hg (24 weeks): 10.78 ± 3.10 | Laboratory blood tests: WBC (24 weeks): 7.28 ± 2.67 | Laboratory blood tests: BP [8]: 168.48 ± 30.78 | Laboratory blood tests: BUN [8]: 3.38 ± 1.01 | Laboratory blood tests: Cr [8]: 78.66 ± 26.42 | Laboratory blood tests: GPT [8]: Norm. | Laboratory blood tests: Hg (period of treatment 0): 11.28 ± 3.72 | Laboratory blood tests: WBC (period of treatment 0): 7.96 ± 2.61 | Laboratory blood tests: BP [9]: 98.97 ± 32.86 | Laboratory blood tests: BUN [9]: 3.96 ± 1.32 | Laboratory blood tests: Cr [9]: 74.86 ± 28.28 | Laboratory blood tests: GPT [9]: Norm. | CRP (period of treatment 0): 32.01 ± 22.75 | ESR (period of treatment 0): 47.11 ± 26.19 | Ig A [10]: 3.62 ± 3.42 | Ig G [10]: 18.13 ± 7.12 | RF [10]: 1.93 ± 0.61
